In patent US8946439B2, “Amide compounds, compositions and uses thereof” (Evotec AG, priority 2008, dated 2015) one finds IC50 data, which are given here for 17 molecules.

One assay concerns the target T1, hP2X3 (Homo sapiens, UniProt P56373).
T1 construct: expressed in transfected cells; host or cells: e.g. HEK293 or 1321N1
T1 sequence (P56373 1-397): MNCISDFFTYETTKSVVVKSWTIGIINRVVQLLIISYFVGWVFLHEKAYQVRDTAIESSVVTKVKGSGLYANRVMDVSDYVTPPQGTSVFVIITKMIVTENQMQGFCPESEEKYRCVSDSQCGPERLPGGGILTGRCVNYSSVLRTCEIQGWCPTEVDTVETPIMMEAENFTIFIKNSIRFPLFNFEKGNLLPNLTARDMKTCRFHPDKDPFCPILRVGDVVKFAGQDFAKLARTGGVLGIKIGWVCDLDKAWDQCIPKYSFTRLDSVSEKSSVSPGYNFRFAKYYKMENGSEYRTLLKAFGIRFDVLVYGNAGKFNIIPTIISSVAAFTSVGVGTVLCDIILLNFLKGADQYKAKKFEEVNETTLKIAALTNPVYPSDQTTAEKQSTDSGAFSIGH
Description: Calcium uptake assay (P2X antagonist assay), P2X3 homomer. The format is cell-based. To be noted: hP2X3. Put shortly: (§1)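 Stably or transiently transfected HEK293 or 1321N1 cells; the heteromer is made by adding P2X3 to a P2X2-stable line, with heteromer function isolated pharmacologically. The peak-minus-baseline FLIPR calcium signal gives % inhibition and a 4-parameter-logistic IC50.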

The target in the next assay is T2, hP2X2/3H (Homo sapiens, UniProt P56373+Q9UBL9).
T2 construct: expressed in transfected cells; host or cells: e.g. HEK293 or 1321N1
T2 sequence (Q9UBL9 1-471): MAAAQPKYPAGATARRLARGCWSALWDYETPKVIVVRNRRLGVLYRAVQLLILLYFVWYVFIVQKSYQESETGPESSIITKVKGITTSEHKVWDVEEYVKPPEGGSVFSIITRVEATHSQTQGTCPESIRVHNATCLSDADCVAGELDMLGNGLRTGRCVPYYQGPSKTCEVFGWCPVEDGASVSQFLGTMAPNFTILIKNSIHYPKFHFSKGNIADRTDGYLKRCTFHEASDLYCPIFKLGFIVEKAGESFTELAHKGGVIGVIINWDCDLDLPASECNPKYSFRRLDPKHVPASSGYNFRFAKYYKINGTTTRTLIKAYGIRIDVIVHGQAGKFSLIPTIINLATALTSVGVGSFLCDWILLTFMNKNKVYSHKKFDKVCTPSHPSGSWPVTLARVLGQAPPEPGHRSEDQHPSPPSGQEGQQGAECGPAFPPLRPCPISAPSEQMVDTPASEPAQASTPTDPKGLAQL
T2 sequence (P56373 1-397): T1 sequence (P56373 1-397)
Description: Calcium uptake assay (P2X antagonist assay), P2X2/3 heteromer. It counts as cell-based. The following applies: hP2X2/3H. Put shortly:
as §1

Setting [1] is: Ca influx (calcium uptake assay), read-out: IC50 hP2X3.
The mark [2] stands for this setting: Ca influx (calcium uptake assay), read-out: IC50 hP2X2/3H.
[3] abbreviates: calcium uptake assay, read-out: IC50 hP2X3 (nM), Ca Influx.
The mark [4] stands for this setting: calcium uptake assay, read-out: IC50 hP2X2/3H (nM), Ca Influx.

Each structure is given as a SMILES string. Where two headings read alike, the source gives them in different places.

For the molecule `Cc1ccc(-c2cc(C(=O)N[C@H](C)c3cnc(C)nc3)cc(C(O)CO)c2)nc1` (stereo partly shown) [Compound 356], the IC50 is less than 100 nM on hP2X3 (setting [1]) and 100 to 500 nM at hP2X2/3H (setting [2]).
In the case of `Cc1ccc(-c2cc(C(=O)N[C@H](CO)c3cnc(C)nc3)cc(S(C)(=O)=O)c2)cc1` [Compound 221, (S)—N-(2-Hydroxy-1-(2-methylpyrimidin-5-yl)ethyl)-4′-methyl-5-(methylsulfonyl)biphenyl-3-carboxamide], the IC50 on hP2X3 (setting [1]) and at hP2X2/3H (setting [2]) was less than 100 nM throughout.
Consider `Cc1ccc(-c2cc(C(=O)NC(CCO)c3ccc(C(F)(F)F)nc3)cc(C(=O)N3CCCC3)c2)cc1` (stereo not shown) [Compound 83, N-(3-Hydroxy-1-(6-(trifluoromethyl)pyridin-3-yl)propyl)-4′-methyl-5-(pyrrolidine-1-carbonyl)biphenyl-3-carboxamide], for which the IC50 at hP2X3 (setting [3]) and at hP2X2/3H (setting [4]) was 100 to 500 nM throughout.
Regarding `Cc1ccc(-c2cc(OCCO)cc(C(=O)N[C@H](C)c3ccc(C)nc3)c2)c(C#N)c1` [Compound 305], the IC50 at hP2X3 (setting [1]) and at hP2X2/3H (setting [2]) was less than 100 nM in each case.
Take `Cc1ccc(-c2cc(C(=O)NCc3ccc(C)nc3)cc(C(O)c3ccccn3)c2)cc1` (stereo not shown) [Compound 240, 5-(Hydroxy(pyridin-2-yl)methyl)-4′-methyl-N-((6-methylpyridin-3-yl)methyl)biphenyl-3-carboxamide]: the IC50 at hP2X3 (setting [1]) and on hP2X2/3H (setting [2]) was less than 100 nM in each case.
For `Cc1ccc(-c2cc(Oc3ncc(CO)s3)cc(C(=O)N[C@H](C)c3ccc(C)nc3)c2)nc1` [Compound 372], the IC50 on hP2X3 (setting [1]) and at hP2X2/3H (setting [2]) was less than 100 nM throughout.
Turning to `Cc1ccc(-c2cc(C(=O)O)cc(C(=O)NCc3cnc(C)nc3)c2)cc1` [Compound 21, 4′-Methyl-5-((2-methylpyrimidin-5-yl)methylcarbamoyl)biphenyl-3-carboxylic acid], the IC50 was 100 to 500 nM on hP2X3 (setting [3]) and greater than 1000 nM at hP2X2/3H (setting [4]).
Taken in the same sequence, the figures for `Cc1ccc(-c2cc(C(=O)N[C@H](C)c3ccc(C(F)(F)F)nc3)cc(C(=O)N3CC[C@@H](O)C3)c2)cc1` [Compound 158] were less than 100 nM and less than 100 nM.
Consider `Cc1ccc(-c2cc(C(=O)O)cc(C(=O)NCc3ccc(C)nc3)c2)cc1` [Compound 87, 4′-Methyl-5-((6-methylpyridin-3-yl)methylcarbamoyl)biphenyl-3-carboxylic acid], for which the IC50 on hP2X3 (setting [3]) and at hP2X2/3H (setting [4]) was 100 to 500 nM in each case.
As to `Cc1ccc(-c2cc(OC3COCC3O)cc(C(=O)N[C@H](C)c3cnc(C)nc3)c2)c(C#N)c1` (stereo partly shown) [Compound 363], the IC50 on hP2X3 (setting [1]) and at hP2X2/3H (setting [2]) was less than 100 nM each time.
In the case of `Cc1ccc(-c2cc(C(=O)N[C@H](C)c3ccc(C)nc3)cc(C(=O)N3CCN4CCCC4C3)c2)cc1` (stereo partly shown) [Compound 192], the IC50 on hP2X3 (setting [3]) and at hP2X2/3H (setting [4]) was less than 100 nM in each case.
On to `CCOC(=O)c1cc(C(=O)NCc2cnc(C)nc2)cc(-c2ccc(C)cc2)c1` [Compound 15, Ethyl 4′-methyl-5-((2-methylpyrimidin-5-yl)methylcarbamoyl)biphenyl-3-carboxylate], for which the IC50 on hP2X3 (setting [3]) and on hP2X2/3H (setting [4]) was less than 100 nM throughout.
As for `Cc1ccc(-c2cc(OCCO)cc(C(=O)N[C@H](C)c3ccc(C)nc3)c2)cc1` [Compound 302], the IC50 at hP2X3 (setting [1]) and at hP2X2/3H (setting [2]) was less than 100 nM in each case.
On to `Cc1ccc(-c2cc(C(=O)N[C@H](CCO)c3ccc(C)nc3)cc(S(C)(=O)=O)c2)cc1` [Compound 205], for which the IC50 at hP2X3 (setting [1]) and on hP2X2/3H (setting [2]) was less than 100 nM each time.
For the molecule `Cc1ccc(-c2cc(C(=O)N[C@H](C)c3cnc(C)nc3)cc(C(=O)N3CC[C@@H](O)C3)c2)cc1` [Compound 157], the IC50 on hP2X3 (setting [3]) and at hP2X2/3H (setting [4]) was less than 100 nM in each case.
As to `Cc1ncc(CNC(=O)c2cc(C(=O)N3CCCC3)cc(-c3ccc(Br)cc3)c2)cn1` [Compound 215], the IC50 at hP2X3 (setting [1]) is less than 100 nM; on hP2X2/3H (setting [2]), 100 to 500 nM.
In the case of `Cc1ccc(-c2cc(C#N)cc(C(=O)NCc3cnc(C)nc3)c2)cc1` [Compound 154], the IC50 on hP2X3 (setting [3]) and at hP2X2/3H (setting [4]) was 100 to 500 nM in each case.
